Test results published in patent US20240343740A1, “MACROCYCLIC GLUCAGON-LIKE PEPTIDE 1 RECEPTOR AGONISTS” (Eli Lilly and Company, priority 2021, published 2024).

How the values were obtained:
human GLP-1R [1] = biological target: T1, human GLP-1R (Homo sapiens, UniProt P43220); test: Human GLP-1 Receptor HEK293 cell cAMP assay, 581 fmol/mg GLP-1R expression density; format: cell-based; design: expressed in transfected cells; host or cells: HEK293 clonal cell line; settings: HEK293 cell line with 581 fmol/mg expression density of GLP-1R; for EC50: geometric mean, read-out: EC50 nM (SEM, n), intracellular cAMP response, relative EC50; for Emax: percent of maximal response to GLP-1(7-36)NH2, arithmetic mean, read-out: Emax % (SEM, n), intracellular cAMP response
T1 sequence (P43220 24-463): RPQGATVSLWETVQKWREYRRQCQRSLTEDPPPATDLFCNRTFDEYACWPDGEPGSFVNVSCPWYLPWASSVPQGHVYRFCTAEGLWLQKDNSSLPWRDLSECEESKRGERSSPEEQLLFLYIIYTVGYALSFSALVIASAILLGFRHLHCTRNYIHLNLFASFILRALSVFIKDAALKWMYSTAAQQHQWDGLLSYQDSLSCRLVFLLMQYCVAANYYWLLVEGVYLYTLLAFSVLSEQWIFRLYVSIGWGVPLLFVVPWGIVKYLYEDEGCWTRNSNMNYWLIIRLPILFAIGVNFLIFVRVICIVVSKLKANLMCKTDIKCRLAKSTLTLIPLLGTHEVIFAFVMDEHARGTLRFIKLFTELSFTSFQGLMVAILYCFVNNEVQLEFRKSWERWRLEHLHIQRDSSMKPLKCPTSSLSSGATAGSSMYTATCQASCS
Protocol: (§1) Human GLP-1 Receptor HEK293 Cell cAMP Assay
(§2) GLP-1 Receptor functional activity is determined using cAMP formation in an HEK293 clonal cell line expressing human GLP-1R (NCBI accession number NP_002053) at an expression density of 581±94 (n=6) and 104±12 (n=5) fmol/mg protein (determined using [^125I]GLP-1(7-36)NH2 homologous competition binding analysis). The hGLP-1R receptor expressing cells are treated with compound (20 point concentration-response curve in DMSO, 2.75-fold Labcyte Echo direct dilution, 384 well plate Corning Cat #3570) in DMEM (Gibco Cat #31053) supplemented with 1× GlutaMAX™ (Gibco Cat #35050), 0.1% bovine casein (Sigma C4765-10ML), 250 μM IBMX (3-Isobutyl-1-methylxanthine, Acros Cat #228420010) and 20 mM HEPES (Gibco Cat #15630) in a 20 μL assay volume (final DMSO concentration is 0.5%). After a 30 min incubation at 37° C., the resulting increase in intracellular cAMP is quantitatively determined using the CisBio cAMP Dynamic 2 HTRF Assay Kit (62AM4PEJ). Briefly, cAMP levels within the cell are detected by adding the cAMP-d2 conjugate in cell lysis buffer (10 μL) followed by the antibody anti-cAMP-Eu^3+-Cryptate, also in cell lysis buffer (10 μL). The resulting competitive assay is incubated for at least 60 min at RT, then detected using a PerkinElmer Envision® instrument with excitation at 320 nm and emission at 665 nm and 620 nm. Envision units (emission at 665 nm/620 nm*10,000) are inversely proportional to the amount of cAMP present and are converted to nM cAMP per well using a cAMP standard curve. The amount of cAMP generated (nM) in each well is converted to a percent of the maximal response observed with human GLP-1(7-36)NH2. A relative EC50 value and percent top (Emax) are derived by non-linear regression analysis using the percent maximal response vs. the concentration of compound added, fitted to a four-parameter logistic equation.

human GLP-1R [2] = biological target: T1, human GLP-1R; test: Human GLP-1 Receptor HEK293 cell cAMP assay, 104 fmol/mg GLP-1R expression density; format: cell-based; design: expressed in transfected cells; host or cells: HEK293 clonal cell line; settings: HEK293 cell line with 104 fmol/mg expression density of GLP-1R; for EC50: geometric mean, read-out: EC50 nM (SEM, n), intracellular cAMP response, relative EC50; for Emax: percent of maximal response to GLP-1(7-36)NH2, arithmetic mean, read-out: Emax % (SEM, n), intracellular cAMP response
Protocol: as §1, §2

EC50 (human GLP-1R [1]) [nM]	Emax (human GLP-1R [1]) [%]	EC50 (human GLP-1R [2]) [nM]	Emax (human GLP-1R [2]) [%]	SMILES
90.6	99.2	384	78.7	N#Cc1ccc2c(c1)CCCOc1cc(ccc1Cc1nc3ccc(C(=O)O)cc3n1C[C@@H]1CCO1)-c1cccc(n1)OC2 [Example 4, (S)-2-((5^4-Cyano-3,9-dioxa-2(2,6)-pyridina-1(1,3),5(1,2)-dibenzenacyclononaphane-1^4-yl)methyl)-1-(oxetan-2-ylmethyl)-1H-benzo[d]imidazole-6-carboxylic acid]
6.58	109	22.3	81.6	COc1cc(C(=O)O)cc2c1nc(Cc1ccc3cc1OCCCc1cc(C#N)ccc1COc1cccc-3n1)n2C[C@@H]1CCO1 [Example 5, (S)-2-((5^4-Cyano-3,9-dioxa-2(2,6)-pyridina-1(1,3),5(1,2)-dibenzenacyclononaphane-1^4-yl)methyl)-4-methoxy-1-(oxetan-2-ylmethyl)-1H-benzo[d]imidazole-6-carboxylic acid]
166	97.2	1020	89.1	N#Cc1ccc2c(c1)CCCOc1cc(ccc1Cc1nc3ccc(C(=O)O)nc3n1C[C@@H]1CCO1)-c1cccc(n1)OC2 [Example 6, (S)-2-((5^4-Cyano-3,9-dioxa-2(2,6)-pyridina-1(1,3),5(1,2)-dibenzenacyclononaphane-1^4-yl)methyl)-3-(oxetan-2-ylmethyl)-3H-imidazo[4,5-b]pyridine-5-carboxylic acid]
20.1	104	96.8	92.9	N#Cc1ccc2c(c1)CCCOc1cc(ccc1Cc1nc3c(F)cc(C(=O)O)cc3n1C[C@@H]1CCO1)-c1cccc(n1)OC2 [Example 7, (S)-2-((5^4-cyano-3,9-dioxa-2(2,6)-pyridina-1(1,3),5(1,2)-dibenzenacyclononaphane-1^4-yl)methyl)-4-fluoro-1-(oxetan-2-ylmethyl)-1H-benzo[d]imidazole-6-carboxylic acid]
168	90.5	815	81.5	N#Cc1ccc2c(c1)CCCOc1cc(c(F)cc1Cc1nc3ccc(C(=O)O)cc3n1C[C@@H]1CCO1)-c1cccc(n1)NC2 [Example 8, (S)-2-((5^4-Cyano-1^6-fluoro-9-oxa-3-aza-2(2,6)-pyridina-1(1,3),5(1,2)-dibenzenacyclononaphane-1^4-yl)methyl)-1-(oxetan-2-ylmethyl)-1H-benzo[d]imidazole-6-carboxylic acid]
1.8	118	5.44	83.1	COc1cc(C(=O)O)cc2c1nc(Cc1cc(C)c3cc1OCCCc1cc(C#N)ccc1COc1cccc-3n1)n2C[C@@H]1CCO1 [Example 9, (S)-2-((5^4-Cyano-16-methyl-3,9-dioxa-2(2,6)-pyridina-1(1,3),5(1,2)-dibenzenacyclononaphane-1^4-yl)methyl)-4-methoxy-1-(oxetan-2-ylmethyl)-1H-benzo[d]imidazole-6-carboxylic acid]
35.3	107	147	88.9	N#Cc1ccc2cc1CCCOc1cc(c(F)cc1Cc1nc3ccc(C(=O)O)cc3n1C[C@@H]1CCO1)-c1cccc(n1)OC2 [Example 10, (S)-2-((5^4-Cyano-1^6-fluoro-3,9-dioxa-2(2,6)-pyridina-1,5(1,3)-dibenzenacyclononaphane-1^4-yl)methyl)-1-(oxetan-2-ylmethyl)-1H-benzo[d]imidazole-6-carboxylic acid]
35	92	194	81	CCn1cncc1Cn1c(Cc2ccc3cc2OCCCc2cc(C#N)ccc2COc2cccc-3n2)nc2ccc(C(=O)O)cc21 [Example 11, 2-((5^4-cyano-3,9-dioxa-2(2,6)-pyridina-1(1,3),5(1,2)-dibenzenacyclononaphane-1^4-yl)methyl)-1-((1-ethyl-1H-imidazol-5-yl)methyl)-1H-benzo[d]imidazole-6-carboxylic acid]
120	88.5	542	74.7	N#Cc1ccc2c(c1)OCCOc1cc(c(F)cc1Cc1nc3ccc(C(=O)O)cc3n1C[C@@H]1CCO1)-c1cccc(n1)OC2 [Example 13, (S)-2-((5^4-Cyano-1^6-fluoro-3,6,9-trioxa-2(2,6)-pyridina-1(1,3),5(1,2)-dibenzenacyclononaphane-1^4-yl)methyl)-1-(oxetan-2-ylmethyl)-1H-benzo[d]imidazole-6-carboxylic acid]
72.3	109	228	82.5	N#Cc1ccc2c(c1)COCc1cc(c(F)cc1Cc1nc3ccc(C(=O)O)cc3n1C[C@@H]1CCO1)-c1cccc(n1)OC2 [Example 14, (S)-2-((5^4-Cyano-1^6-fluoro-3,7-dioxa-2(2,6)-pyridina-1(1,3),5(1,2)-dibenzenacyclooctaphane-1^4-yl)methyl)-1-(oxetan-2-ylmethyl)-1H-benzo[d]imidazole-6-carboxylic acid]
6.74	105	26.4	82.8	COc1cc(C(=O)O)cc2c1nc(Cc1cc(C)c3cc1OCCCc1cc(C#N)ccc1COc1cccc-3c1)n2C[C@@H]1CCO1 [Example 15, (S)-2-((5^4-Cyano-1^6-methyl-3,9-dioxa-1,2(1,3),5(1,2)-tribenzenacyclononaphane-1^4-yl)methyl)-4-methoxy-1-(oxetan-2-ylmethyl)-1H-benzo[d]imidazole-6-carboxylic acid]
1.95	125	4.02	86.7	COc1cc(C(=O)O)cc2c1nc(Cc1cc(C)c3cc1OCCCc1cc(C(F)(F)F)ccc1COc1cccc-3n1)n2C[C@@H]1CCO1 [Example 16, (S)-4-Methoxy-2-((1^6-methyl-5^4-(trifluoromethyl)-3,9-dioxa-2(2,6)-pyridina-1(1,3),5(1,2)-dibenzenacyclononaphane-1^4-yl)methyl)-1-(oxetan-2-ylmethyl)-1H-benzo[d]imidazole-6-carboxylic acid]
10.5	121	38.4	84.6	COc1cc(C(=O)O)cc2c1nc(Cc1cc(F)c3cc1COCc1cc(C#N)ccc1COc1cccc-3n1)n2C[C@@H]1CCO1 [Example 17, (S)-2-((5^4-cyano-1^6-fluoro-3,7-dioxa-2(2,6)-pyridina-1(1,3),5(1,2)-dibenzenacyclooctaphane-1^4-yl)methyl)-4-methoxy-1-(oxetan-2-ylmethyl)-1H-benzo[d]imidazole-6-carboxylic acid]
50.3	115	169	94.9	O=C(O)c1ccc2nc(Cc3ccc4cc3OCCCc3cc(Br)ccc3COc3cccc-4n3)n(C[C@@H]3CCO3)c2c1 [Example 18, (S)-2-((5^4-Bromo-3,9-dioxa-2(2,6)-pyridina-1(1,3),5(1,2)-dibenzenacyclononaphane-1^4-yl)methyl)-1-(oxetan-2-ylmethyl)-1H-benzo[d]imidazole-6-carboxylic acid]
55.4	103	197	83	N#Cc1ccc2c(c1)CCOCc1cc(ccc1Cc1nc3ccc(C(=O)O)cc3n1C[C@@H]1CCO1)-c1cccc(n1)OC2 [Example 19, (S)-2-((5^4-Cyano-3,8-dioxa-2(2,6)-pyridina-1(1,3),5(1,2)-dibenzenacyclononaphane-1^4-yl)methyl)-1-(oxetan-2-ylmethyl)-1H-benzo[d]imidazole-6-carboxylic acid]
58	105	226	89.9	N#Cc1ccc2c(c1)CCOc1cc(c(F)cc1Cc1nc3ccc(C(=O)O)cc3n1C[C@@H]1CCO1)-c1cccc(n1)OC2 [Example 20, (S)-2-((5^4-Cyano-1^6-fluoro-3,8-dioxa-2(2,6)-pyridina-1(1,3),5(1,2)-dibenzenacyclooctaphane-1^4-yl)methyl)-1-(oxetan-2-ylmethyl)-1H-benzo[d]imidazole-6-carboxylic acid]
